Series [1] has as its system rat primary dopaminergic neurons. Description: Cellular model of Parkinson's disease, survival of rat primary dopaminergic neurons after 6-hydroxydopamine injury. The class given is cell-based. An excerpt: 6-hydroxydopamine (6-OHDA) is a selective catecholaminergic neurotoxin that is not only used as a pharmacological agent able to trigger PD-like stigmata (Sauer H. and Oertel W H Neuroscience 1994; 59: 401 and Cass W A et al. Brain Res. 2002; 938: 29) but also likely corresponds to a natural dopaminergic catabolite that accumulates in PD-affected brains and that appears to strongly contribute to this pathology (Jellinger K. et al. J. Neural. Transm. 1995; 46: 297). For this reason, 6-OHDA-induced dopaminergic neurotoxicity in mice is widely used as a model for PD research. Because 6-OHDA also induces neurodegeneration of dopaminergic neurons in vitro, it provides a useful model of PD. In this in vitro test mesencephalic dopaminergic neurons are exposed to 6-OHDA injury. […] After 24 h of intoxication, viable dopaminergic neurons are visualized and quantified by staining with a monoclonal Anti-Tyrosine Hydroxylase (TH) antibody. Tyrosine Hydroxylase is the first and rate-limiting enzyme involved in the biosynthesis of catecholamines like dopamine and norepinephrin from Tyrosine and has a key role in the physiology of adrenergic neurons. Tyrosine hydroxylase is commonly used as a marker for dopaminergic neurons, which is particularly relevant for research in Parkinson's disease.
Rat dopaminergic neurons were cultured as described by Schinelli et al. J. Neurochem. 1988; 50: 1900 and Visanji N P et al. FASEB J. 2008; 22: 2488. Briefly, the midbrains obtained from 15-day old rat embryos (Janvier, France) were dissected under a microscope. The embryonic midbrains were removed and placed in ice-cold medium of Leibovitz (L15) containing 2% of Penicillin-Streptomycin (PS) and 1% of bovine serum albumin (BSA). The ventral portion of the mesencephalic flexure, a region of the developing brain rich in dopaminergic neurons, was used for the cell preparations.
The midbrains were dissociated by trypsinisation for 20 min at 37° C. (Trypsin EDTA 1X). […] Viable cells were counted in a Neubauer cytometer using the trypan blue exclusion test. […]

The subject of series [2] is rat primary GABAergic medium spiny neurons. Description: Cellular model of Huntington's disease, survival of rat primary GABAergic medium spiny neurons after glutamate injury. The format is cell-based. From the text:
GABAergic medium spiny neurons (MSNs) in the striatum represent the mostly affected cell population in HD brain. Being the main neuronal cell type of the striatum (85% in humans), GABAergic MSNs play a central role in the clinical manifestation of HD. GABA is viewed as the neurotransmitter that inhibits spontaneous involuntary movements, therefore loss of GABAergic MSNs is responsible for chorea development and other involuntary movements. The exquisite vulnerability of MSNs of striatum to degeneration in HD is caused by glutamate excitotoxicity that leads to neuronal dysfunction and death. Excessive activation of NMDA glutamate receptors is observed in post-mortem HD brain tissue (Kumar P. et al. Pharmacol. Rep. 2010; 62: 1). […] After 24 h of intoxication, viable GABAergic neurons are visualized and quantified by staining with a monoclonal anti-Glutamic Acid Decarboxylase antibody (specific for isoform GAD67). […]
For each condition, 30 pictures per well were acquired (representing 80% of the total surface of the well) using ImageXpress (Molecular device) equipped with a LED at 20× magnification. […] The number of GAD67-positive neurons was automatically analyzed using MetaXpress software (Molecular device). […] All values were expressed as mean+/−SEM (s.e. mean) (n=6 wells per condition per culture).

Series [3] is described as follows: Crossing of the blood-brain barrier, inferred from activity by intra-peritoneal route. The class given is in vivo. Conditions: concluded from biological activity after intra-peritoneal administration. From the text: To cross the BBB, persons skilled in the art know that the molecular and physicochemical properties of the molecule must fulfill the 5 criteria described by Lipinski et al. (1997). Adv Drug Del Rev 23: 3-25 (amongst them a low molecular weight, its hydrophobicity, its charge etc. . . . ).

No end group written: not given here.

Regarding `NCCc1cc(O)c(O)cc1O` [6-OHDA, 6-hydroxydopamine, reference compound], in series [1] (6-OHDA 20 μM, 24 h, no protective pre-treatment), the “reduction of survival of TH-positive dopaminergic neurons compared to control culture conditions” value came to 31%. For the molecule `N[C@@H](CCC(=O)O)C(=O)O` [glutamate, reference compound], the “reduction of survival of GAD67-positive MSN compared to control culture conditions” value in series [2] (glutamate 10 μM, 20 min, read after 24 h, no protective pre-treatment) is on record as 38%.

With “EAKSQGGSD [PAT peptide, Glu-Ala-Lys-Ser-Gln-Gly-Gly-Ser-Asp (EAKSQGGSD)]”, the “survival of TH-positive dopaminergic neurons (% of control condition)” value in series [1] (PAT 10 nM, 1 h pre-incubation, then 6-OHDA 20 μM for 24 h) stood at 100%. Moreover, in series [3], the “passage across the blood-brain barrier” value is given as “crosses the BBB”.

B1: BNDF: survival promoting brain derived neurotrophic factor used as a positive control (protein, UniProt P23560 19-247, looked up)
Neurotrophic factor BDNF …: APMKEANIRGQGGLAYPGVRTHGTLESVNGPKAGSRGLTSLADTFEHVIEELLDEDQKVRPNEENNKDADLYTSRVMLSSQVPLEPPLLFLLEEYKNYLDAANMSMRVRRHSDPARRGELSVCDSISEWVTAADKKTAVDMSGGTVTVLEKVPVSKGQLKQYFYETKCNPMGYTKEGCRGIDKRHWNSQCRTTQSYVRALTMDSKKRIGWRFIRIDTSCVCTLTIKRGR
Take B1: the “protection of TH-positive neurons from 6-OHDA-induced cell death” value in series [1] (BDNF 50 ng/mL (2 nM), 1 h pre-incubation, 6-OHDA 20 μM 24 h) is on record as “fully protected”. In series [2] (BDNF 50 ng/mL (2 nM), 1 h pre-incubation, glutamate 10 μM 20 min, then 24 h), the “survival of GAD67-positive neurons (cell survival, % of control)” value was 81%.
